The source of these data is patent publication US7718393B2, “Method for determining the efficacy of an anthracycline anticancer agent” (Sysmex Corporation, priority 2006, dated 2010).

Format in all cases: cell-based, human
The test system of one experiment is MCF-7. The experiment in a line: Cell growth test with or without doxorubicin, MCF-7. Conditions: MCF-7, 1 μM doxorubicin, FIG. 3. An excerpt:
(§1) Human breast cancer cells MCF-7, T47-D, SK-B-3, SK-Br-3, MDA-MB-231 and MDA-MB-468 were purchased from American Type Culture Collection (ATCC). 38 cancer cell samples (Nos. 1 to 38) were excised from 38 breast cancer patients with invasive breast cancer classified in stages I to IIIb according to the breast cancer stage classification. The 38 breast cancer patients are those who after removal of cancer tissue, received chemotherapy consisting essentially of administration of anthracycline anticancer agents. Each human breast cancer cell or cancer tissue was proliferated in Eagle's modified minimum essential medium (GIBCO) (hereinafter referred to merely as medium) containing 10% FCS (Commonwealth Laboratories), 1% (v/v) nonessential amino acid (GIBCO), 2 mM L-glutamine (Sigma Chemical), 100 μg/ml streptomycin (GIBCO), 100 U/ml penicillin (GIBCO) and 0.28 μg/ml fungizone (Squib Pharmaceuticals) in a humidified atmosphere of 5% CO2/95% air at 37° C. 3.0×10^3 human breast cancer cells or cancer tissue were inoculated onto a medium in a 96-well plate and cultured for 1 day in a humidified atmosphere of 5% CO2/95% air at 37° C. Thereafter, the medium was exchanged with a medium with or without 1 μM doxorubicin. Cell proliferation after 0, 24, 48 and 72 hours was measured by using a cell proliferation assay kit (Nippon Chemi-Con Corporation) or Cell Titer-Glo Luminescent Cell Viability assay (Promega) in accordance with its manufacturer's instructions.

In another experiment the test system is MDA-MB-231. Kind of experiment: Cell growth test with or without doxorubicin, MDA-MB-231. The following applies: MDA-MB-231, 1 μM doxorubicin, FIGS. 6 and 11.
From the text: as §1

The next experiment concerns T47-D. The experiment in a line: Cell growth test with or without doxorubicin, T47-D. The following applies: 1 μM doxorubicin, FIG. 4.
From the text: as §1, with “Thereafter, the medium was exchanged with a medium with or without 1 μM doxorubicin.” left out

Another experiment deals with SK-Br-3. Kind of experiment: Cell growth test with or without doxorubicin, SK-Br-3. Conditions: SK-Br-3, 1 μM doxorubicin, FIGS. 5 and 10.
From the text: as §1, with “Thereafter, the medium was exchanged with a medium with or without 1 μM doxorubicin.” left out

A further experiment deals with MDA-MB-468. Kind of experiment: Cell growth test with or without doxorubicin, MDA-MB-468. The following applies: MDA-MB-468, 1 μM doxorubicin, FIGS. 7 and 9.
From the text: as §1, with “Thereafter, the medium was exchanged with a medium with or without 1 μM doxorubicin.” left out

The next experiment relates to MDA-MB-453. Kind of experiment: Cell growth test with or without doxorubicin, MDA-MB-453. Conditions: MDA-MB-453, 1 μM doxorubicin, FIG. 8.

Consider `COc1cccc2c1C(=O)c1c(O)c3c(c(O)c1C2=O)C[C@@](O)(C(=O)CO)C[C@@H]3O[C@H]1C[C@H](N)[C@H](O)[C@H](C)O1` [doxorubicin], for which the “Cell proliferation as compared with the control” value in the experiment on MCF-7 (0 to 72 hours) and with MDA-MB-231 (0 to 72 hours) was “suppressed” in each case. Also, the “Living cells from 0 hour after administration” value in the experiment on MCF-7 (0 to 72 hours) is reported as “hardly changed or are increased”; with MDA-MB-231 (0 to 72 hours), “hardly changed or are increased”; with T47-D (0 to 72 hours) it was “gradually decreased with time”; with SK-Br-3 (0 to 72 hours) it was “gradually decreased with time”; in the experiment with MDA-MB-468 (0 to 72 hours) it was “gradually decreased with time”; in the experiment with MDA-MB-453 (0 to 72 hours), “gradually decreased with time”. Moreover, the Induction of apotosis result with MCF-7 is “very low”; in the experiment with MDA-MB-231 it was “very low”; with T47-D, “induced, but the effect thereon can be seen to be lower”; in the experiment with SK-Br-3 (72 hours) it was “so high that the living cells hardly remain after 72 hours”; in the experiment on MDA-MB-468, “induced, but the effect thereon can be seen to be lower”; in the experiment on MDA-MB-453 (72 hours), “so high that the living cells hardly remain after 72 hours”.
